One may read the Emax as the maximal effect, on the per cent scale that the assay sets.

Type in all cases: cell-based
Assay [1] deals with T1, GLP-1R (Homo sapiens, UniProt P43220). In words: HitHunter cAMP assay (GLP-1R). Particulars: Table 3A, cAMP; for Emax: read-out: (Emax) GLP-1R. In outline: (§1)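 Luminescent readout of cAMP by enzyme-fragment immunocompetition gave agonist concentration-response data. Cells (10,000/well) sat in HBSS buffer containing IBMX 625 μM, HEPES 10 mM and BSA 0.2%, exposed to agonist for 30 min at room temperature.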
T1 sequence (P43220 24-463): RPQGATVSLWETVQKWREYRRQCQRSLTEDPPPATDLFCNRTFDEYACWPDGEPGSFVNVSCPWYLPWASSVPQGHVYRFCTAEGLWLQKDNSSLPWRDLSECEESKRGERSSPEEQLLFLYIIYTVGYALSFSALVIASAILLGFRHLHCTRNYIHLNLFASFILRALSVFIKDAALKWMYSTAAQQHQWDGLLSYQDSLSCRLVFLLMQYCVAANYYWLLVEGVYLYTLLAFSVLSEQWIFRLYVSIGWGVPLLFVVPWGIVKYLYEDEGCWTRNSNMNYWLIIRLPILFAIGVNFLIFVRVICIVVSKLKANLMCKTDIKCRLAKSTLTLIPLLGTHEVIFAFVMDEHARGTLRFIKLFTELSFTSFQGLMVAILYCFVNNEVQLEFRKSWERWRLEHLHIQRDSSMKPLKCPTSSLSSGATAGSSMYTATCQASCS
Background: Changes in cAMP serve as a functional read-out for many G protein-coupled receptors.

The target in the next assay is T2, GIP-R (Homo sapiens, UniProt P48546).
T2 sequence (P48546 22-466): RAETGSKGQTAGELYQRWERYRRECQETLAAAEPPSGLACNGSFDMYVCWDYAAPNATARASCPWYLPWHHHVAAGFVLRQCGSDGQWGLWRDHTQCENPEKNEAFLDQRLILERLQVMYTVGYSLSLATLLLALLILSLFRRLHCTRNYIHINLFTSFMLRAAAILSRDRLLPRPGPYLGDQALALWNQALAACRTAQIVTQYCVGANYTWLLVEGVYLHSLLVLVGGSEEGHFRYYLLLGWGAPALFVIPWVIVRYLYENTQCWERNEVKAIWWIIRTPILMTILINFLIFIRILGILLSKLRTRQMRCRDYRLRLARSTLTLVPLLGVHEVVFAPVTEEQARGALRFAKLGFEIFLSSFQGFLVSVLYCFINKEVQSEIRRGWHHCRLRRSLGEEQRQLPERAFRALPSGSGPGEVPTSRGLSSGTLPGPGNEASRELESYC
The assay is described as follows: HitHunter cAMP assay (GIP-R). Particulars: Table 3A, cAMP; for Emax: read-out: (Emax) GIP-R. The essentials: as §1

For assay [2], the target named is T1, GLP-1R. In words: PathHunter β-arrestin assay. The method, then:
The effects of the chemical entities described herein on β-arrestin signaling and associated downstream processes (e.g., those delineated above) can be assessed using conventional methods, e.g., PathHunter β-arrestin Assay for determining β-arresting coupling (see Examples section). […] It has been shown that b-arrestin coupling is a key strep in receptor internalization and subsequent de-sensitization and attenuation of signaling.
5,000 cells were seeded in appropriate cell culture media per well in a low volume 384-well tissue culture plate. The assay plate was incubated with cells overnight at 37° C. and 5% CO2. The media was removed, and 5 μL of appropriate cell culture media containing 0.2% BSA was added. Agonist serial dilutions in a separate 384 well dilution plate in a 22-point series of 2× dilutions of agonist in DMSO were performed as follows. 80 μL of the highest concentration of Agonist/DMSO was added to well No. 1. 40 μL was removed from well No. 1, and added to well No. 2, followed by gentle mixing. […] This process was repeated until well No. 22. Additional serial dilutions for additional agonists were set up in a similar manner. 100 nL of each 2× agonist serial dilution was added in duplicate to the designated agonist rows of the assay plate using the Labcyte ECHO. Assay plate was incubated for 90 minutes at 37° C. and 5% CO2. A stock of Working Detection Solution in a separate 15 ml polypropylene tube was prepared by mixing 19 parts of Cell Assay Buffer, 5 parts of Substrate Reagent 1, 1 part Substrate Reagent 2. […] Plates were spun down briefly. Assay plate was incubated for 3 hour at room temperature in the dark for the immunocompetition reaction to occur. Samples were read on Tecan i-control plate reader using luminescence mode with 100 ms integration time. Data analysis was performed using GraphPad Prism.

Structures are written as SMILES. Read-outs that look alike come from different tables or passages of the source. Numbered stars: 1 amine (or outer) side, 2 acyl side, 3 side chain; on linkers, the order of the positions; unused ones are H or OH. Square brackets hold non-standard residues; d marks the D form. Side chains are listed from the residue outwards. Peptide text beside a SMILES is read from it. * marks the point of attachment. X1 = O=C(CSCC(=O)*)NCCN1C(=O)c2ccccc2C1=O; X9 = O=C([C@H](Cc1cc(O)no1)N[*:1])[*:2]; γGlu = O=C(O)[C@H](CCC(=O)[*:2])N[*:1]; Palmitoyl = CCCCCCCCCCCCCCCC(=O)*; X6 = O=C(CSCC(=O)*)NCCN1CCCCC1=O; Aib = CC(C)(N)C(=O)O Bounds are passed on as bounds.

Regarding `CCCCCCCCCCCCCCCC(=O)N[C@@H](CCC(=O)NCCCC[C@H](NC(=O)[C@H](CO)NC(=O)[C@@H]1CCCN1C(=O)[C@@H]1CCCN1C(=O)[C@@H]1CCCN1C(=O)[C@H](C)NC(=O)CNC(=O)[C@H](CO)NC(=O)[C@H](CO)NC(=O)[C@@H]1CCCN1C(=O)CNC(=O)CNC(=O)[C@H](C)NC(=O)[C@H](CC(C)C)NC(=O)[C@H](CC(C)C)NC(=O)[C@H](Cc1c[nH]c2ccccc12)NC(=O)[C@H](CC(N)=O)NC(=O)[C@@H](NC(=O)[C@H](Cc1ccccc1)NC(=O)[C@H](CCC(=O)O)NC(=O)C(C)(C)NC(=O)[C@H](C)NC(=O)[C@H](C)NC(=O)[C@H](CCC(N)=O)NC(=O)[C@H](CCCCN)NC(=O)[C@H](CC(=O)O)NC(=O)[C@H](CC(C)C)NC(=O)[C@H](Cc1ccc(O)cc1)NC(=O)[C@@H](NC(=O)[C@H](CO)NC(=O)[C@H](Cc1ccc(O)cc1)NC(=O)[C@H](CC(=O)O)NC(=O)[C@H](CO)NC(=O)[C@@H](NC(=O)[C@H](Cc1ccccc1)NC(=O)[C@@H](NC(=O)CNC(=O)[C@H](CCC(=O)O)NC(=O)CSCC(=O)NCCN1Cc2ccccc2CC1=O)[C@@H](C)O)[C@@H](C)O)[C@@H](C)CC)C(C)C)C(N)=O)C(=O)O` [Compound 270], the EC50 on GLP-1R [1] (EC50 GLP-1R/nM) and at GIP-R (EC50 GIP-R/nM) was 1 to 10 nM each time. Besides, the Emax at GLP-1R [1] and at GIP-R was 90% each time.
On to `CCCCCCCCCCCCCCCC(=O)N[C@@H](CCC(=O)NCCCC[C@H](NC(=O)[C@H](CO)NC(=O)[C@@H]1CCCN1C(=O)[C@@H]1CCCN1C(=O)[C@@H]1CCCN1C(=O)[C@H](C)NC(=O)CNC(=O)[C@H](CO)NC(=O)[C@H](CO)NC(=O)[C@@H]1CCCN1C(=O)CNC(=O)CNC(=O)[C@H](C)NC(=O)[C@H](CC(C)C)NC(=O)[C@H](CC(C)C)NC(=O)[C@H](Cc1c[nH]c2ccccc12)NC(=O)[C@H](CC(N)=O)NC(=O)[C@@H](NC(=O)[C@H](Cc1ccccc1)NC(=O)[C@H](CCC(=O)O)NC(=O)C(C)(C)NC(=O)[C@H](C)NC(=O)[C@H](C)NC(=O)[C@H](CCC(N)=O)NC(=O)[C@H](CCCCN)NC(=O)[C@H](CC(=O)O)NC(=O)[C@H](CC(C)C)NC(=O)[C@H](Cc1ccc(O)cc1)NC(=O)[C@@H](NC(=O)[C@H](CO)NC(=O)[C@H](Cc1ccc(O)cc1)NC(=O)[C@H](CC(=O)O)NC(=O)[C@H](CO)NC(=O)[C@@H](NC(=O)[C@H](Cc1ccccc1)NC(=O)[C@@H](NC(=O)CNC(=O)[C@H](CCC(=O)O)NC(=O)CSCC(=O)NCCN1C(=O)[C@H]2CC[C@@H]1C2)[C@@H](C)O)[C@@H](C)O)[C@@H](C)CC)C(C)C)C(N)=O)C(=O)O` [Compound 289], for which the EC50 at GLP-1R [1] (EC50 GLP-1R/nM) was under 0.1 nM; on GIP-R (EC50 GIP-R/nM), 10 to 100 nM. For the same molecule, the values for the Emax at GLP-1R [1] and at GIP-R were 100% and 20%, respectively.
For the molecule `CCCCCCCCCCCCCCCC(=O)N[C@@H](CCC(=O)NCCCC[C@H](NC(=O)[C@H](CO)NC(=O)[C@@H]1CCCN1C(=O)[C@@H]1CCCN1C(=O)[C@@H]1CCCN1C(=O)[C@H](C)NC(=O)CNC(=O)[C@H](CO)NC(=O)[C@H](CO)NC(=O)[C@@H]1CCCN1C(=O)CNC(=O)CNC(=O)[C@H](C)NC(=O)[C@H](CC(C)C)NC(=O)[C@H](CC(C)C)NC(=O)[C@H](Cc1c[nH]c2ccccc12)NC(=O)[C@H](CC(N)=O)NC(=O)[C@@H](NC(=O)[C@H](Cc1ccccc1)NC(=O)[C@H](CCC(=O)O)NC(=O)C(C)(C)NC(=O)[C@H](C)NC(=O)[C@H](C)NC(=O)[C@H](CCC(N)=O)NC(=O)[C@H](CCCCN)NC(=O)[C@H](CC(=O)O)NC(=O)[C@H](CC(C)C)NC(=O)[C@H](Cc1ccc(O)cc1)NC(=O)[C@@H](NC(=O)[C@H](CO)NC(=O)[C@H](Cc1ccc(O)cc1)NC(=O)[C@H](CC(=O)O)NC(=O)[C@H](CO)NC(=O)[C@@H](NC(=O)[C@H](Cc1ccccc1)NC(=O)[C@@H](NC(=O)CNC(=O)[C@H](CCC(=O)O)NC(=O)CSCC(=O)NCCN1C(=O)[C@@H]2C=C[C@H]1C2)[C@@H](C)O)[C@@H](C)O)[C@@H](C)CC)C(C)C)C(N)=O)C(=O)O` [Compound 290], the results for the EC50 at GLP-1R [1] (EC50 GLP-1R/nM) and on GIP-R (EC50 GIP-R/nM) were under 0.1 nM and 10 to 100 nM, respectively. For the same molecule, the Emax on GLP-1R [1] worked out at 100%; at GIP-R, 10%.
The like results for `CCCCCCCCCCCCCCCC(=O)N[C@@H](CCC(=O)NCCCC[C@H](NC(=O)[C@H](CO)NC(=O)[C@@H]1CCCN1C(=O)[C@@H]1CCCN1C(=O)[C@@H]1CCCN1C(=O)[C@H](C)NC(=O)CNC(=O)[C@H](CO)NC(=O)[C@H](CO)NC(=O)[C@@H]1CCCN1C(=O)CNC(=O)CNC(=O)[C@H](C)NC(=O)[C@H](CC(C)C)NC(=O)[C@H](CC(C)C)NC(=O)[C@H](Cc1c[nH]c2ccccc12)NC(=O)[C@H](CC(N)=O)NC(=O)[C@@H](NC(=O)[C@H](Cc1ccccc1)NC(=O)[C@H](CCC(=O)O)NC(=O)C(C)(C)NC(=O)[C@H](C)NC(=O)[C@H](C)NC(=O)[C@H](CCC(N)=O)NC(=O)[C@H](CCCCN)NC(=O)[C@H](CC(=O)O)NC(=O)[C@H](CC(C)C)NC(=O)[C@H](Cc1ccc(O)cc1)NC(=O)[C@@H](NC(=O)[C@H](CO)NC(=O)[C@H](Cc1ccc(O)cc1)NC(=O)[C@H](CC(=O)O)NC(=O)[C@H](CO)NC(=O)[C@@H](NC(=O)[C@H](Cc1ccccc1)NC(=O)[C@@H](NC(=O)CNC(=O)[C@H](CCC(=O)O)NC(=O)CSCC(=O)NCCN1C(=O)[C@@H]2CC[C@H]1C2)[C@@H](C)O)[C@@H](C)O)[C@@H](C)CC)C(C)C)C(N)=O)C(=O)O` [Compound 291] were, in that order, 0.1 to 1 nM, 1 to 10 nM, 100% and 60%.
As to `CCCCCCCCCCCCCCCC(=O)N[C@@H](CCC(=O)NCCCC[C@H](NC(=O)[C@H](CO)NC(=O)[C@@H]1CCCN1C(=O)[C@@H]1CCCN1C(=O)[C@@H]1CCCN1C(=O)[C@H](C)NC(=O)CNC(=O)[C@H](CO)NC(=O)[C@H](CO)NC(=O)[C@@H]1CCCN1C(=O)CNC(=O)CNC(=O)[C@H](C)NC(=O)[C@H](CC(C)C)NC(=O)[C@H](CC(C)C)NC(=O)[C@H](Cc1c[nH]c2ccccc12)NC(=O)[C@H](CC(N)=O)NC(=O)[C@@H](NC(=O)[C@H](Cc1ccccc1)NC(=O)[C@H](CCC(=O)O)NC(=O)C(C)(C)NC(=O)[C@H](C)NC(=O)[C@H](C)NC(=O)[C@H](CCC(N)=O)NC(=O)[C@H](CCCCN)NC(=O)[C@H](CC(=O)O)NC(=O)[C@H](CC(C)C)NC(=O)[C@H](Cc1ccc(O)cc1)NC(=O)[C@@H](NC(=O)[C@H](CO)NC(=O)[C@H](Cc1ccc(O)cc1)NC(=O)[C@H](CC(=O)O)NC(=O)[C@H](CO)NC(=O)[C@@H](NC(=O)[C@H](Cc1ccccc1)NC(=O)[C@@H](NC(=O)CNC(=O)[C@H](Cc1cc(O)no1)NC(=O)CSCC(=O)NCCN1CCCCC1=O)[C@@H](C)O)[C@@H](C)O)[C@@H](C)CC)C(C)C)C(N)=O)C(=O)O` [Compound 292] (X6-[X9]GTFTSDYSIYLDKQAA[Aib]EFVNWLLAGGPSSGAPPPSK([γGlu-Palmitoyl])-NH2), the Emax at GLP-1R [1] was 90%; on GIP-R, 50%. In addition, the EC50 at GLP-1R [1] (read-out: EC50 GLP-1R/nM) was in the range of 1 to 10 nM; on GIP-R (read-out: EC50 GIP-R/nM), 10 to 100 nM.
Consider `CC[C@H](C)[C@H](NC(=O)[C@H](CO)NC(=O)[C@H](Cc1ccc(O)cc1)NC(=O)[C@H](CC(=O)O)NC(=O)[C@H](CO)NC(=O)[C@@H](NC(=O)[C@H](Cc1ccccc1)NC(=O)[C@@H](NC(=O)CNC(=O)[C@H](CCC(=O)O)NC(=O)CSCC(=O)NCCN1C(=O)c2ccccc2C1=O)[C@@H](C)O)[C@@H](C)O)C(=O)N[C@@H](Cc1ccc(O)cc1)C(=O)N[C@@H](CC(C)C)C(=O)N[C@@H](CC(=O)O)C(=O)N[C@@H](CCCCN)C(=O)N[C@@H](CCC(N)=O)C(=O)N[C@@H](C)C(=O)N[C@@H](C)C(=O)NC(C)(C)C(=O)N[C@@H](CCC(=O)O)C(=O)N[C@@H](Cc1ccccc1)C(=O)N[C@H](C(=O)N[C@@H](CCC(=O)O)C(=O)N[C@@H](Cc1c[nH]c2ccccc12)C(=O)N[C@@H](CC(C)C)C(=O)N[C@@H](CC(C)C)C(=O)N[C@@H](C)C(=O)NCC(=O)NCC(=O)N1CCC[C@H]1C(=O)N[C@@H](CO)C(=O)N[C@@H](CO)C(=O)NCC(=O)N[C@@H](C)C(=O)N1CCC[C@H]1C(=O)N1CCC[C@H]1C(=O)N1CCC[C@H]1C(=O)N[C@@H](CO)C(=O)N[C@@H](CCCCN)C(N)=O)C(C)C` [compound 149] (X1-EGTFTSDYSIYLDKQAA[Aib]EFVEWLLAGGPSSGAPPPSK-NH2), for which the EC50 on GLP-1R [2] was over 1000 nM.
